Data set [1] has as its system Female Wistar rats. Kind of data set: Reserpine Tremor Test. Type of data set: in vivo, rat. The note with it: route sc, dose 2.5 mg/kg, 90 min before testing; reserpine 2 mg/kg iv 60 min before testing; 15-min session; number of rats out of rats tested. On the procedure: Female Wistar rats weighing 200-220 g were used. These test animals were food deprived for 24 hours. Said rats were pretreated orally (po) or subcutaneously (sc) with a test compound at 90 minutes before testing. This pretreatment was followed by an intravenous injection of 2 mg/kg reserpine at 60 minutes before testing. Two control groups of 20 rats each were included in the experiment. The first control group consisted of rats that were only treated with a saline solution and the second control group consisted of animals which only received a saline reserpine solution. At the start of the test, the rats were individually placed in specially designed test cages and tremor activity was measured continuously during a 15-min test session. These test cages consisted of a plexiglass chamber. The floor of the test cage consisted of a plexiglass plate which was centered underneath the cage. […] The floor plate rested at its four corners on a rubber point of support. Two pieces of piezo-film were tied up next to each other underneath the middle of the floor plate. Said piezo-films were connected to an amplifier. The test cage was situated in a sound and light attenuating out box, being constantly illuminated and air-ventilated. The piezo-electric response, produced by deformation of the cage floor was amplified by an individual amplifier for each piezo-film separately. […]

Molecule `Cc1nc2ccccn2c(=O)c1CCN1CCC(c2coc3cc(F)ccc23)CC1` [Co. No. 1, 3-[2-[4-(6-fluoro-3-benzofuranyl)-1-piperidinyl]ethyl]-2-methyl-4H-pyrido-[1,2-a]pyrimidin-4-one] gave a melting point of 159.8 °C. For the same molecule, in data set [1], the “rats showing a tremor activity below 35 counts” value came to 3.

Broadly, the melting point is the temperature of the solid-liquid transition.

The values above are taken from patent US6348457B1, “4-[3-benzofuranyl]piperidinyl and 4-[3-benzothienyl]piperidinyl derivatives” (Janssen Pharmaceutica N.V., priority 1922, dated 2002).
